Converted amounts (≈) assume the structure as drawn.
What was measured:
[1] = test system: bovine corneal endothelial cells; assay: cells; format: cell-based
Method: Cultures of bovine corneal endothelial cells were established from steer eyes and maintained as previously described [D. Gospodarowicz, et al., Exp. Eye Res., No. 25, pp. 75-89 (1997)]. Cells were cultured at 37° C. in 10% CO2 humidified incubators and the experiments were performed with early (3-8) cell passsages.
For preparation of the sulfate-labelled ECM (extra-cellular matrix), corneal endothelial cells were seeded into 4-well plates at a confluent density forming, within 4-6 h, a contact inhibited cell monolayer composed of closely apposed, and growth arrested cells. Under these conditions, the cells remained viable and retained their normal monolayer configuration and morphological appearance up to a concentration of 2 μg/ml halofuginone. Na2[^35S]O4 (540-590 mCi/mmol) was added (40 μCi/ml) one and five days after seeding and the cultures were incubated without medium change. At various intervals after seeding, the subendothelial ECM was exposed by dissolving (5 min., room temperature) the cell layer with PBS containing 0.5% Triton X-100 and 20 mM NH4OH, followed by four washes in PBS [I Viodavsky, et al., Cancer Res., Vol. 43, pp. 2704-2711 (1983), I. Vlodavsky, et al., Proc. Natl. Acad. Sci. USA, Vol. 84 pp. 2292-2296 (1987)]. To determine the total amount of sulfate labeled material, the BCM was digested with trypsin (25 μg/ml, 24 h, 37° C.) and the solubilized material counted in a β-counter.

rat aortic rings = assay: Microvessel formation from rat aortic rings embedded in type I collagen gel; format: cell-based
Method: Thoracic aortas were obtained from 1- to 2-month-old SD (Sprague-Dawley) rats sacrificed by decapitation [R. F. Nicosia and A. Ottinetti, Lab. Invest, Vol. 63, pp. 115-122 (1991)]. The aortas were immediately transferred to a Petri dish with PBS. The fibro-adipose tissue around the aorta was carefully removed under a dissecting microscope, and 1 mm-long aortic rings were sectioned and extensively rinsed in PBS. Type I collagen solution (0.2 ml) was added to each 16-mm well and gellation was allowed for 15 min at 37° C. Each aorta ring was transferred and positioned to the center of the gel and another 0.4 ml of the collagen solution was carefully poured on top of the ring. […]

tumor cells = assay: Tunnel staining of histological tumor sections (necrosis and apoptosis); format: in vivo; conditions: tumors from halofuginone treated mice, FIG. 1F panel B
Source text: Histological sections of the tumors were subjected to tunnel staining [Gavrieli, Y. et al., J. Cell Biol., Vol. 119, pp. 493-501, 1992], in order to evaluate the extent of tumor cell necrosis and apoptosis. […] The high degree of cell apoptosis and necrosis in halofuginone treated tumors is in all likelihood due to an inhibition of angiogenesis and […] deposition, both critical factors supporting growth and survival of the tumor cells.

[2] = test system: human leiomyosarcoma tumor cells; assay: Proliferation ([3H]thymidine incorporation) of human leiomyosarcoma tumor cells; format: cell-based
Method: Samples of human leiomyosarcoma tumors were obtained from women undergoing surgical hysterectomy, as described [R. S. Mangrulker, et al., ibid.]. Minced tissue was placed into 20 ml cold homogenization buffer: 1 M NaCl, 10 mM Tris (pH 7.4), 1 mM EDTA, 1 mM benzamidine, 0.1% CHAPS, 0.01% Aprotinin (Sigma), 10 μg/ml leupeptin, 1 mM AEBSF [R. S. Mangrulker, et al., ibid]. Samples were homogenized for 2 min and centrifuged at 12000 a g for 60 min at 4° C. The supernatants were diluted 1:5 with 10 mM Tris (pH 7.4) to a final volume of 100 ml and filtered with 0.45 μm nylon fibers. Cells were plated and maintained in DMEM plus 10% calf serum. The cells remained viable over a number of passages but were used at passages 2 or 3. For proliferation assays, cells were plated in 96-well plates at 10,000 cells/well an 200 μl medium (DMEM with 4.5 G/L glucose, 10% calf serum. 1% glutamine, 1% penicillin/streptomycin) and incubated 2 days until confluent. […] The medium was changed to DMEM with 0.5%calf serum, 1 μM insulin and 5 μM transferrin. After 24 h, the samples (5-10 μl) were added and after an additional 24 h, [^3H]thymidine (1 μCi/well) was added to each well. After 36-48 h incubation, the cells were fixed with methanol, and the DNA was precipitated with 5% trichloroacetic acid. The cells were lysed with 150 μl/well of 0.3 N NaOH, transferred to scintillation vials, and counted on a β-counter. […] The effect of Halofuginone on proliferation of HB-EGF (Heparin-Binding Epidermal Growth Factor) and serum-stimulated leiomyosarcoma cells was then examined. The leiomyosarcoma tumor cells were growth-arrested by 48 h incubation in medium containing 0.5% FCS. The cells were then exposed (24 h) to either 10% FCS or 10 ng/ml HB-EGF in the absence or presence of 10 ng/ml Halofuginone. [^3H]thymidine was then added and DNA synthesis measured 36 h later.

[3] = test system: bovine aortic endothelial cells; assay: 3H-thymidine incorporation into vascular endothelial cells; format: cell-based; conditions: 48 hours
Method: Cultures of vascular endothelial cells were established from bovine aorta as previously described [D. Gospodarowicz, et al., Proc. Natl. Acad. Sci. U.S.A., Vol. 73, p. 4120 (1979)]. Bovine aortic endothelial cells were plated (4×10^4 cells/16 mm well) in DMEM (1 g glucose/liter) supplemental with 10% calf serum, 50 U/ml penicillin, and 50 μ/ml streptomycin at 37° C. in 10% CO2 humidified incubators. Four days after plating, the subconfluent cells were exposed to increasing concentrations of Halofuginone (100-500 ng/ml), in the absence of presence of 1 ng/ml bFGF. ^3H-thymidine (1 μCi/well) was then added for an additional 48 hours, and DNA synthesis was assayed by measuring the radioactivity incorporated into trichloroacetic acid insoluble material [M. Benezra, et al., Cancer Res., Vol 52, pp. 5656-5662 (1992); I. Vlodavsky, et al., Proc. Natl. Acad. Sci. U.S.A. Vol. 84, pp. 2292-2296 (1987)].

3T3 fibroblast cells = conditions: in vitro; cited from earlier work

## O=C(CC1NCCCC1O)Cn1cnc2cc(Br)c(Cl)cc2c1=O (stereo not shown) [Halofuginone]
[1]; 1 μg/ml Halofuginone
  inhibition of sulfate incorporation into ECM: almost complete inhibition
[1]; Bos taurus, Endothelial cell, read-out: concentration giving 50% inhibition of sulfate incorporation into ECM
  IC50: 0.2 µg/mL (≈ 0.482 µM)
[1]; bovine
  concentration up to which cells remained viable with normal monolayer configuration and morphology: ≤ 2 μg/ml
Rat aortic rings; 100 ng/ml Halofuginone
  inhibition of microvessel formation: almost complete inhibition
Rat aortic rings; 250 ng/ml Halofuginone
  inhibition of microvessel formation: Complete inhibition
Rat aortic rings; removal of the drug on day 2
  reversibility of inhibition of microvessel formation: reversed upon removal of the drug on day 2
Tumor cells
  tunnel staining of tumor sections (cell apoptosis and necrosis): majority of cells in tumor sections derived from halofuginone treated mice exhibited an intense staining
[2]; 10 ng/ml HB-EGF, 10 ng/ml Halofuginone, growth-arrested cells
  inhibition of cell proliferation induced by HB-EGF: complete inhibition
[2]; 10% FCS, 10 ng/ml Halofuginone, growth-arrested cells
  inhibition of cell proliferation induced by serum: complete inhibition
[2]; Homo sapiens, 2.5 ng/ml Halofuginone (FIG. 11A)
  inhibition at 0.0025 µg/mL: 60 to 70%
[3]; Bos taurus, Endothelial cell, absence of bFGF (FIG. 2A), read-out: concentration giving 50% inhibition of 3H-thymidine incorporation
  IC50: 0.1 µg/mL (≈ 0.241 µM)
[3]; presence of 1 ng/ml bFGF (FIG. 2B)
  concentration giving 50% inhibition of 3H-thymidine incorporation: 100 ng/mL
3T3 fibroblast cells
  proliferation of 3T3 fibroblast cells: inhibit the proliferation
